Data: patent US20210220356A1, “DIHYDROPYRIMIDINE DERIVATIVES AND USES THEREOF IN THE TREATMENT OF HBV INFECTION OR OF HBV-INDUCED DISEASES” (Janssen Sciences Ireland Unlimited Company, priority 2018, published 2021)
Where a name gives a salt, the structure may show the parent alone. Read-outs that look alike come from different tables or passages of the source.

Experiments:
Type in all cases: cell-based
HBV = HBV inhibitory activity in HepG2.2.15 cells (HBV DNA in culture medium by q-PCR)
Protocol: (§1) • HepG2.2.15 (the HepG2.2.15 cell line can be produced by transfection of the HepG2 cell line as described in Sells, Chen, and Acs 1987 (Proc. Natl. Acad. Sci. USA 84: 1005-1009), and the HepG2 cell line is available from ATCC® under number HB-8065™)
(§2) Seed the cell HepG2.2.15 cells into 96-well plate in 2% FBS culture medium at the density of 40,000 cells/well and 5,000 cells/well for HBV inhibitory activity and cytotoxicity determination, respectively. After seeding, incubate the cell plates at 37° C., 5% CO2 overnight. The next day, medium containing compounds is added to the cell to treat the cells for 6 days with medium refreshed once in the middle of the treatment. 8 dose points with 3 folds dilution of each compound were adopted and the highest concentration of the compounds is 10 uM and 100 uM for HBV inhibitory activity and cytotoxicity determination, respectively.
The HBV DAN change in the cell culture medium induced by the compounds is measured by q-PCR method. Briefly, the HBV DNA in the culture medium is extracted using QIAamp 96 DNA Blood Kit according to the manual and then quantified by q-PCR using the primers and probe in the table below.
(§3) EC50 and CC50 values are calculated by the GRAPHPAD PRISM software.

[1] = Cytotoxicity determination in HepG2.2.15 cells (CCK-8); details: human, HepG2.2.15 cells, 5,000 cells/well, 6 days of compound treatment, CCK-8 absorbance 450 nm, highest concentration 100 uM
Protocol: as §1, §2
(§4) After 6 days of compounds treatment, add 20 μl CCK-8 reagents to each well of cytotoxicity assay plates, incubate the plate at 37° C., 5% CO2 for 2.5 h and measure the absorbance at 450 nm wavelength, at the same time read the absorbance at 630 nm wavelength as reference.
as §3

HepG2.2.15 cells = experiment: as above; details: HepG2.2.15 cells, 5,000 cells/well, 6 days of compound treatment, CCK-8 absorbance 450 nm, highest concentration 100 uM
Protocol: as §1, §2, §4, §3

[2] = HepG2.2.15 cells, 40,000 cells/well, 6 days of compound treatment, HBV DNA in culture medium by q-PCR, highest concentration 10 uM, read-out: EC50
[3] = Hepatitis B virus, HepG2.2.15, 144 h, HepG2.2.15 cells, 40,000 cells/well, 6 days of compound treatment, HBV DNA in culture medium by q-PCR, highest concentration 10 uM, read-out: EC50

| Structure (SMILES) | EC50 (HBV; [2]) | CC50 at 6 days ([1]; HepG2.2.15 cells) | other results |
| --- | --- | --- | --- |
| COC(=O)C1=C(C2CCc3[nH]ncc3C2)NC(c2nccs2)=NC1c1ccc(F)c(F)c1Cl (single isomer, unassigned) [Compound 65a, Methyl 4-(2-chloro-3,4-difluorophenyl)-6-(4,5,6,7-tetrahydro-1H-indazol-5-yl)-2-(thiazol-2-yl)-1,4-dihydropyrimidine-5-carboxylate] | 56.3 nM | 11800 nM | – |
| COC(=O)C1=C(C2CCc3nn(CC(C)(C)C(=O)O)cc3C2)NC(c2nccs2)=NC1c1ccc(F)c(F)c1Cl (centres unmarked) [Compound 84d, 3-(5-(6-(2-chloro-3,4-difluorophenyl)-5-(methoxycarbonyl)-2-(thiazol-2-yl)-3,6-dihydropyrimidin-4-yl)-4,5,6,7-tetrahydro-2H-indazol-2-yl)-2,2-dimethylpropanoic acid] | – | 16400 nM | EC50 (HBV; [3]): 18.8 nM |
| COC(=O)C1=C(C2CCc3nn(CCC(=O)O)cc3C2)NC(c2nccs2)=NC1c1ccc(F)c(F)c1C (centres unmarked) [Compound 76c, 3-(5-(6-(3,4-difluoro-2-methylphenyl)-5-(methoxycarbonyl)-2-(thiazol-2-yl)-3,6-dihydropyrimidin-4-yl)-4,5,6,7-tetrahydro-2H-indazol-2-yl)propanoic acid] | – | 16100 nM | EC50 (HBV; [3]): 13 nM |
| CCOC(=O)C1=C(C2CCc3nn(CCC(=O)O)cc3C2)NC(c2nccs2)=NC1c1cccc(F)c1Br (single isomer, unassigned) [Compound 42b, 3-(5-(6-(2-bromo-3-fluorophenyl)-5-(ethoxycarbonyl)-2-(thiazol-2-yl)-3,6-dihydropyrimidin-4-yl)-4,5,6,7-tetrahydro-2H-indazol-2-yl)propanoic acid] | 131 nM | 10200 nM | – |
| COC(=O)C1=C(C2CCc3nn(CCC(=O)O)cc3C2)NC(c2nccs2)=NC1c1ccc(F)c(F)c1Cl (single isomer, unassigned) [Compound 70b, 3-(-5-(6-(2-chloro-3,4-difluorophenyl)-5-(methoxycarbonyl)-2-(thiazol-2-yl)-3,6-dihydropyrimidin-4-yl)-4,5,6,7-tetrahydro-2H-indazol-2-yl)propanoic acid] | 83 nM | 22700 nM | – |
| COC(=O)C1=C(C2CCc3nn(C(C)(C)CC(=O)O)cc3C2)NC(c2nccs2)=NC1c1ccc(F)c(F)c1Cl (single isomer, unassigned) [Compound 82b] | 86.1 nM | 15900 nM | – |
| CCOC(=O)C1=C(C2CCc3nn(CCC(C)(C)C(=O)O)cc3C2)NC(c2nccs2)=NC1c1ccc(F)c(F)c1Cl (centres unmarked) [Compound 88d, 4-(5-(6-(2-Chloro-3,4-difluorophenyl)-5-(ethoxycarbonyl)-2-(thiazol-2-yl)-3,6-dihydropyrimidin-4-yl)-4,5,6,7-tetrahydro-2H-indazol-2-yl)-2,2-dimethylbutanoic acid] | – | 9800 nM | EC50 (HBV; [3]): 20.8 nM |
| CCOC(=O)C1=C(C2CCc3nn(CCC(=O)O)cc3C2)NC(c2nccs2)=NC1c1cccc(F)c1Cl (single isomer, unassigned) [Compound 40b, 3-(5-(6-(2-Chloro-3-fluorophenyl)-5-(ethoxycarbonyl)-2-(thiazol-2-yl)-3,6-dihydropyrimidin-4-yl)-4,5,6,7-tetrahydro-2H-indazol-2-yl)propanoic acid] | 480 nM | 21500 nM | – |
| CCOC(=O)C1=C(C2CCc3nn(CCC(=O)O)cc3C2)NC(c2nccs2)=NC1c1ccc(F)cc1Cl (single isomer, unassigned) [Compound 37b, 3-(5-(6-(2-Chloro-4-fluorophenyl)-5-(ethoxycarbonyl)-2-(thiazol-2-yl)-3,6-dihydropyrimidin-4-yl)-4,5,6,7-tetrahydro-2H-indazol-2-yl)propanoic acid] | 175 nM | 19600 nM | – |
| CCOC(=O)C1=C(C2CCc3nn(CC(C)(C)C(=O)O)cc3C2)NC(c2ncc(F)cc2F)=NC1c1ccc(F)c(F)c1Cl (centres unmarked) [Compound 94c, 3-(5-(6-(2-Chloro-3,4-difluorophenyl)-2-(3,5-difluoropyridin-2-yl)-5-(ethoxycarbonyl)-3,6-dihydropyrimidin-4-yl)-4,5,6,7-tetrahydro-2H-indazol-2-yl)-2,2-dimethylpropanoic acid hydrochloride] | – | – | EC50 (HBV; Hepatitis B virus, HepG2.2.15, 144 h): 7.1 nM; CC50 at 6 days [1]: 16500 nM |
| CCOC(=O)C1=C(C2CCc3nn(CCCC(=O)O)cc3C2)NC(c2nccs2)=NC1c1ccc(F)c(F)c1Cl (single isomer, unassigned) [Compound 50b, 4-(5-(6-(2-Chloro-3,4-difluorophenyl)-5-(ethoxycarbonyl)-2-(thiazol-2-yl)-3,6-dihydropyrimidin-4-yl)-4,5,6,7-tetrahydro-2H-indazol-2-yl)butanoic acid] | 116 nM | 12600 nM | – |
| CCOC(=O)C1=C(C2CCc3cn(CCC(=O)O)c(C#N)c3C2)NC(c2nccs2)=NC1c1ccc(F)c(F)c1Cl (centres unmarked) [Compound 63, 3-(6-(6-(2-Chloro-3,4-difluorophenyl)-5-(ethoxycarbonyl)-2-(thiazol-2-yl)-3,6-dihydropyrimidin-4-yl)-1-cyano-4,5,6,7-tetrahydro-2H-isoindol-2-yl)propanoic acid] | – | 5100 nM | EC50 (HBV; [3]): 436 nM |
| CCOC(=O)C1=C(C2CCc3nn(CCC(=O)O)cc3C2)NC(c2nccs2)=NC1c1ccc(F)c(F)c1C (single isomer, unassigned) [Compound 35b, 3-(5-(6-(3,4-Difluoro-2-methylphenyl)-5-(ethoxycarbonyl)-2-(thiazol-2-yl)-3,6-dihydropyrimidin-4-yl)-4,5,6,7-tetrahydro-2H-indazol-2-yl)propanoic acid] | 95.8 nM | 20700 nM | – |
| CCOC(=O)C1=C(C2CCc3nn(CCC(=O)O)cc3C2)NC(c2ncc(F)cc2F)=NC1c1ccc(F)c(F)c1Cl (single isomer, unassigned) [Compound 43b, 3-(5-(6-(2-Chloro-3,4-difluorophenyl)-2-(3,5-difluoropyridin-2-yl)-5-(ethoxycarbonyl)-3,6-dihydropyrimidin-4-yl)-4,5,6,7-tetrahydro-2H-indazol-2-yl)propanoic acid] | 125 nM | 31300 nM | – |
| COC(=O)C1=C(C2CCc3nc(CCC(=O)O)ncc3C2)NC(c2nccs2)=NC1c1ccc(F)c(F)c1Cl (centres unmarked) [Compound 64, 3-(6-(6-(2-Chloro-3,4-difluorophenyl)-5-(methoxycarbonyl)-2-(thiazol-2-yl)-3,6-dihydropyrimidin-4-yl)-5,6,7,8-tetrahydroquinazolin-2-yl)propanoic acid] | – | 26400 nM | EC50 (HBV; [3]): 70 nM |
| COC(=O)C1=C(C2CCc3nn(CCC(=O)O)cc3C2)NC(c2nccs2)=NC1c1ccc(F)c(F)c1Br (single isomer, unassigned) [Compound 46d, 3-(5-(6-(2-Bromo-3,4-difluorophenyl)-5-(methoxycarbonyl)-2-(thiazol-2-yl)-3,6-dihydropyrimidin-4-yl)-4,5,6,7-tetrahydro-2H-indazol-2-yl)propanoic acid] | 13.6 nM | – | CC50 (HepG2.2.15 cells): 10700 nM |
| COC(=O)C1=C(C2CCc3nn(CCC(=O)O)cc3C2)NC(c2nccs2)=NC1c1ccc(F)cc1Br (single isomer, unassigned) [Compound 48b, 3-(5-(6-(2-Bromo-4-fluorophenyl)-5-(methoxycarbonyl)-2-(thiazol-2-yl)-3,6-dihydropyrimidin-4-yl)-4,5,6,7-tetrahydro-2H-indazol-2-yl)propanoic acid] | 600 nM | – | CC50 (HepG2.2.15 cells): 80000 nM |
| CCOC(=O)C1=C(C2CCc3cn(CCC(=O)O)nc3C2)NC(c2nccs2)=NC1c1ccc(F)c(F)c1Cl (single isomer, unassigned) [Compound 61c, 3-(6-(6-(2-Chloro-3,4-difluorophenyl)-5-(ethoxycarbonyl)-2-(thiazol-2-yl)-3,6-dihydropyrimidin-4-yl)-4,5,6,7-tetrahydro-2H-indazol-2-yl)propanoic acid] | 125 nM | – | CC50 (HepG2.2.15 cells): 29000 nM |
| COC(=O)C1=C(C2CCc3nn(C(C)(C)CC(=O)O)cc3C2)NC(c2nccs2)=NC1c1ccc(F)c(F)c1Cl (single isomer, unassigned) [Compound 82c, 3-(5-(-6-(2-chloro-3,4-difluorophenyl)-5-(methoxycarbonyl)-2-(thiazol-2-yl)-3,6-dihydropyrimidin-4-yl)-4,5,6,7-tetrahydro-2H-indazol-2-yl)-3-methylbutanoic acid] | 6.5 nM | – | CC50 (HepG2.2.15 cells): 15100 nM |
